# Measured values taken from PMC6628379, “Synthesis and Biological Evaluation of Novel Selenyl and Sulfur-L-Dopa Derivatives as Potential Anti-Parkinson’s Disease Agents” (Biomolecules, 2019).
# “Also recorded” adds a separate entry of the source. Counter-ions that a name gives are not always drawn. Like-named read-outs stand apart in the source and are kept apart here. Where a SMILES comes first, the peptide text is derived from it. [ ]: non-standard residue; d: D form. dDopa = N[C@H](Cc1ccc(O)c(O)c1)C(=O)O; dSeMet = C[Se]CC[C@@H](N)C(=O)O
# Key:
# [1] = Octanol/water partition coefficient (logP o/w); format: physicochemical; settings: n-octanol / phosphate buffer pH 7.4, HPLC
# Protocol: The clogP values were calculated using ACD LogP software package, version 4.55 (Advanced Chemistry Development Inc., Toronto, Canada). Octanol/water partition coefficients (logP o/w) were determined by placing 5 mg of SP into 1 mL of anhydrous n-octanol and an equal volume of phosphate buffer pH 7.4. After vigorously shaking, the resulting mixture was allowed to stand until the complete separation of the two phases. Finally, each phase was filtered and analyzed using HPLC [16].
# [2] = BBB-PAMPA (parallel artificial membrane permeability); format: in vitro ADME, porcine; settings: for capacity to cross the BBB: BBB-PAMPA; for Papp at 16 h: pig, PAMPA-BBB, 16 h at room temperature, pH 7.4, read-out: Pe; for Classification: PAMPA-BBB class by Pe
# Protocol: The blood–brain barrier (BBB)-PAMPA method was used to evaluate the ability of SPs to cross the BBB via passive diffusion. The artificial membrane of each microplate was coated with 5 µL of a porcine polar brain lipid extract mixture (purchased from Avantis Polar Lipids, Alabaster, AL, USA). A total of 150 µL of drug solution was put on the membrane (donor plate) while the bottom plate was filled with 300 µL of buffer solution (acceptor plate). The system was incubated for 16 h at room temperature and then the concentration of the drug in the acceptor plate was evaluated using HPLC. The concentration of the drug at the theoretical equilibrium was determined diluting 500 µM of SP solution with phosphate buffer pH 7.4 and then analyzed using HPLC [18]. Pe (10^−6 cm/s) was calculated as the effective permeability coefficient.
# [3] = Stability in human plasma; format: in vitro ADME; settings: for half-life at 1 mg/mL: human, 80% human plasma with 20% 0.02 M phosphate buffer
# Protocol: Human plasma was purchased from 3H Biomedical (Uppsala, Sweden, Europe). SP stock solution was added to a mixture of 80% plasma and 20% of 0.02 M phosphate buffer (pH 7.4) at 37 °C to obtain a final drug concentration of 1 mg/mL. Samples of 100 μL were taken at various times, and 200 μL of MeOH containing 0.01 M HCl was used to stop the enzymatic activity. The samples were centrifuged for 5 min at 5000× g, and the resultant supernatants were filtered and analyzed using HPLC [17].
# [4] = test system: undifferentiated SH-SY5Y human neuroblastoma cells; experiment: MTT cell viability, undifferentiated SH-SY5Y cells; format: cell-based
# [5] = test system: differentiated SH-SY5Y neuroblastoma cells; experiment: Nitroblue tetrazolium (NBT) assay; format: cell-based, human; settings: 1 µM, 24 h incubation
# Protocol: The differentiated SH-SY5Y cells were treated with SP6 and/or LD compounds at 1 µM for 24 h, and then 10^6 cells were harvested, centrifuged for 5 min at 1200 rpm, and resuspended in 1 mL 0.9% NaCl, in which NBT (nitro blue tetrazolium chloride, 1 mg/mL) was dissolved. The cells were incubated for 3 h at 37 °C, centrifuged (10 min at 1200 rpm), resuspended in 1 mL dimethyl sulfoxide, and left for 20 min at 37 °C. Then, cells were plated in a 96 well plate (2 x 10^5 cell/well) and read at 550 nm using a scanning multi-well spectrophotometer (Cary50MPR, Varian).
# [6] = test system: differentiated SH-SY5Y human neuroblastoma cells; experiment: Intracellular ROS measurement (H2DCFDA assay); format: cell-based; settings: 1 µM for 24 h, then 25 µM H2O2; 2.5 and 5 min; vs CTRL + 25 µM H2O2
# Protocol: SHSY-5Y human neuroblastoma cells were plated (2700 cells/well) into special optics 96-well plates (Corning-Costar, New York, USA) and the cells were treated with retinoic acid (RA)/phorbol 12-myristate 13-acetate (PMA) in order to obtain a dopaminergic phenotype. The differentiated cells were treated with SP1-6 at 1 μM for 24 h and then washed with an imaging buffer (125 mM NaCl, 5 mM KCl, 1.2 mM MgSO4, 5 mM glucose, 25 mM HEPES, and 2 mM CaCl2). A concentration of 10 μM of 2',7'-dichlorofluorescin diacetate (H2DCFDA, Molecular probes, Life Technologies REF […]) was added and the plates were incubated at 37 °C for 30 min. After the incubation, cells were washed with an imaging buffer and treated with 25 μM H2O2 for an immediate fluorescence measurement. Plates were read every 50 s from 0 to 5 min for kinetic data analysis using a microplate reader (Synergy H1, BioTek), with excitation and emission wavelengths at 490 nm and 520 nm, respectively, and analyzed by Gen 5 version 2.08 (BioTek).
# [7] = test system: RA/PMA-differentiated and 6-OHDA-lesioned SH-SY5Y human neuroblastoma cells; experiment: Neuroprotection against 6-OHDA (MTT); format: cell-based; settings: 1 µM
# Protocol: (§1) In order to obtain a dopaminergic phenotype, the cells were treated with retinoic acid (RA)/phorbol 12-myristate 13-acetate (PMA) in a medium supplemented with RA (10 μM) for three days; then, the medium was removed and replaced with growth medium containing PMA (80 nM) for three days.
# (§2) SP1–6 were dissolved in dimethyl sulfoxide (DMSO). SH-SY5Y cells were plated onto 96-well plates (2700 cell/well). The undifferentiated cells (UC) were grown for 24 h in normal medium and then incubated with seven different compounds at different concentrations (1, 10, and 100 µM). […] After 24 h and 48 h of incubation with or without the compounds, the both sets of cells (UC and DC) were assessed for viability by using a colorimetric assay of 3-[4,5-dimethylthiazol-2-yl]-2,5-diphenyltetrazolium bromide (MTT). The differentiated SH-SY5Y cells were treated with SP6 or LD compounds at 1 µM for 1 h and then exposed to 25, 50, 75, and 150 µM 6-OHDA. After a further 24 h of incubation, the cultures were assessed for viability using an MTT assay. For experiments with the neurotoxin H2O2, the differentiated SH-SY5Y cells were pretreated with SP6 or LD compounds at 1 µM for 24 h and then exposed to 25, 150, and 300 µM H2O2 for a further 24 h. Cell viability was detected using the MTT assay.
# [8] = test system: differentiated and H2O2-lesioned SH-SY5Y human neuroblastoma cells; experiment: Neuroprotection against H2O2 (MTT); format: cell-based; settings: 1 µM
# Protocol: as §1, §2
# [9] = test system: differentiated SH-SY5Y human neuroblastoma cells; experiment: MTT cell viability, RA/PMA-differentiated SH-SY5Y cells; format: cell-based; settings: dopaminergic differentiated cells, 48 h, 100 µM
# [10] = 80% human plasma, 20% 0.02 M phosphate buffer pH 7.4, 37 °C
# [11] = pH 7.4, 80% human plasma, 20% 0.02 M phosphate buffer pH 7.4, 37 °C, read-out: t1/2
# [12] = pH 7.4, human plasma, read-out: half-life
# [13] = 24 h, all tested concentrations (1, 10, 100 µM)
# [14] = 24 h before and during 24 h with 150 µM H2O2
# [15] = 24 h before and during 24 h with 300 µM H2O2
SMILES,logP [1],capacity to cross the BBB [2],Papp at 16 h [2],"Kobs [3, 10]","half-life at 1 mg/mL [3, 11]",Classification [2],stability in plasma ([3]; human plasma),"half-life at 1 mg/mL [3, 12]","cytotoxic effect [4, 13]",superoxide anion level [5],antioxidant activity (intracellular ROS) [6],"protection against 6-OHDA toxicity (cell viability) ([7]; 1 h before and during 24 h with 25, 50, 75, 150 µM 6-OHDA)","protection against H2O2 toxicity (cell viability) [8, 14]","protection against H2O2 toxicity (cell viability) [8, 15]","t1/2 [3, 10]","cytotoxic effect ([4]; 48 h, 100 µM)",cytotoxic effect [9],protection against 6-OHDA toxicity (cell viability) ([7]; 1 h before and during 24 h with 150 µM 6-OHDA)
"COC(=O)[C@@H](Cc1ccc(OC(C)=O)c(OC(C)=O)c1)NC(=O)[C@@H](CSSC[C@@H](NC(C)=O)C(=O)N[C@H](Cc1ccc(OC(C)=O)c(OC(C)=O)c1)C(=O)OC)NC(C)=O [SP3, Methyl (2R)-3-[3,4-bis(acetyloxy)phenyl]-2-[(2S)-3-{[(2S)-2-{[(2R)-3-[3,4-bis(acetyloxy)phenyl]-1-methoxy-1-oxopropan-2-yl]carbamoyl}-2-acetamidoethyl]disulfanyl}-2-acetamidopropanamido]propanoate]",1.07,possess the capacity to cross the BBB,3.1 ×10⁻⁶ cm/s,0.014 (±0.003) min^−1,0.837 h,,,,,,,,,,,,,
"COC(=O)[C@@H](Cc1ccc(OC(C)=O)c(OC(C)=O)c1)NC(=O)CCSSCCC(=O)N[C@H](Cc1ccc(OC(C)=O)c(OC(C)=O)c1)C(=O)OC [SP2, Methyl (2R)-3-[3,4-bis(acetyloxy)phenyl]-2-{3-[(2-{[(2R)-3-[3,4-bis(acetyloxy)phenyl]-1-methoxy-1-oxopropan-2-yl]carbamoyl}ethyl)disulfanyl]propanamido}propanoate]",0.828,,1.82 ×10⁻⁶ cm/s,0.010 (±0.001) min^−1,1.1 h,CNS^− (CNS^− (indicative of low BBB permeation): Pe (10^−6 cm/s) < 2),,,,,,,,,,,,
"COC(=O)[C@@H](Cc1ccc(OC(C)=O)c(OC(C)=O)c1)NC(=O)CSSCC(=O)N[C@H](Cc1ccc(OC(C)=O)c(OC(C)=O)c1)C(=O)OC [SP1, Methyl (2R)-3-[3,4-bis(acetyloxy)phenyl]-2-{2-[({[(2R)-3-[3,4-bis(acetyloxy)phenyl]-1-methoxy-1-oxopropan-2-yl]carbamoyl}methyl)disulfanyl]acetamido}propanoate]",-0.163,,1.15 ×10⁻⁶ cm/s,0.024 (±0.001) min^−1,0.48 h,CNS^− (CNS^− (indicative of low BBB permeation): Pe (10^−6 cm/s) < 2),,,,,,,,,,,,
"COC(=O)[C@@H](Cc1ccc(OC(C)=O)c(OC(C)=O)c1)NC(=O)[C@@H](CC[Se]C)NC(C)=O [SP6, Methyl (2R)-3-[3,4-bis(acetyloxy)phenyl]-2-[(2R)-2-acetamido-4-(methylselanyl)butanamido]-propanoate]",1.44,possess the capacity to cross the BBB,4.5 ×10⁻⁶ cm/s,0.004 (±0.0001) min^−1,2.89 h,,resistant to the enzymatic hydrolyses by plasma esterases,> 2 h,did not show cytotoxic effects,significantly reduced the superoxide anion level,significant antioxidant activity; also recorded: able to reduce ROS levels,protective action against the toxin at all tested concentrations,effective in countering the toxic effect,partially countered,,,,
"COC(=O)[C@@H](Cc1ccc(O)c(O)c1)NC(=O)[C@@H](CC[Se]C)NC(C)=O [SP5, Methyl (2R)-3-(3,4-dihydroxyphenyl)-2-[(2R)-2-acetamido-4-(methylselanyl)butanamido]-propanoate] (Ac-[dSeMet]-[dDopa]-OMe)",0.51,unable to completely cross the BBB,2.3 ×10⁻⁶ cm/s,0.005 (±0.0001) min^−1,2.1 h,CNS^− (CNS^− (indicative of low BBB permeation): Pe (10^−6 cm/s) < 2),,> 2 h,,,,,,,,,,
"COC(=O)[C@@H](Cc1ccc(OC(C)=O)c(OC(C)=O)c1)NC(=O)C[Se][Se]CC(=O)N[C@H](Cc1ccc(OC(C)=O)c(OC(C)=O)c1)C(=O)OC [SP4, Methyl (2R)-3-[3,4-bis(acetyloxy)phenyl]-2-{2-[({[(2R)-3-[3,4-bis(acetyloxy)phenyl]-1-methoxy-1-oxopropan-2-yl]carbamoyl}methyl)diselanyl]acetamido}propanoate]",-1.17,,0.94 ×10⁻⁶ cm/s,Immediate hydrolysis,,CNS^+ (CNS^+ (indicative of high BBB permeation): Pe (10^−6 cm/s) > 4),,,,,,,,,Immediate hydrolysis,,,
"N[C@@H](Cc1ccc(O)c(O)c1)C(=O)O [LD, L-p-3,4-dihydroxyphenylalanine hydrochloride, reference compound]",-2.46,,0.75 ×10⁻⁶ cm/s,,,CNS^− (CNS^− (indicative of low BBB permeation): Pe (10^−6 cm/s) < 2),,,did not show cytotoxic effects,seemed to increase it; also recorded: increase in superoxide anion levels,significant antioxidant activity,,ineffective,ineffective,,toxic effect,detrimental effect,partially counteract the toxic effect
